The values that follow come from ChEMBL document CHEMBL2073745, “Disruption of the mouse mdr1a P-glycoprotein gene leads to a deficiency in the blood-brain barrier and to increased sensitivity to drugs” (Cell, 1994).

For this series, the target named is ATP-dependent translocase ABCB1 (Mus musculus, UniProt P21447). The series can be described thus: TP_TRANSPORTER: increase in plasma concentration in mdr1a(-/-) mouse. It counts as functional, organism-based. Particulars: in vivo.
Chain of ATP-dependent translocase ABCB1 (P21447 whole entry): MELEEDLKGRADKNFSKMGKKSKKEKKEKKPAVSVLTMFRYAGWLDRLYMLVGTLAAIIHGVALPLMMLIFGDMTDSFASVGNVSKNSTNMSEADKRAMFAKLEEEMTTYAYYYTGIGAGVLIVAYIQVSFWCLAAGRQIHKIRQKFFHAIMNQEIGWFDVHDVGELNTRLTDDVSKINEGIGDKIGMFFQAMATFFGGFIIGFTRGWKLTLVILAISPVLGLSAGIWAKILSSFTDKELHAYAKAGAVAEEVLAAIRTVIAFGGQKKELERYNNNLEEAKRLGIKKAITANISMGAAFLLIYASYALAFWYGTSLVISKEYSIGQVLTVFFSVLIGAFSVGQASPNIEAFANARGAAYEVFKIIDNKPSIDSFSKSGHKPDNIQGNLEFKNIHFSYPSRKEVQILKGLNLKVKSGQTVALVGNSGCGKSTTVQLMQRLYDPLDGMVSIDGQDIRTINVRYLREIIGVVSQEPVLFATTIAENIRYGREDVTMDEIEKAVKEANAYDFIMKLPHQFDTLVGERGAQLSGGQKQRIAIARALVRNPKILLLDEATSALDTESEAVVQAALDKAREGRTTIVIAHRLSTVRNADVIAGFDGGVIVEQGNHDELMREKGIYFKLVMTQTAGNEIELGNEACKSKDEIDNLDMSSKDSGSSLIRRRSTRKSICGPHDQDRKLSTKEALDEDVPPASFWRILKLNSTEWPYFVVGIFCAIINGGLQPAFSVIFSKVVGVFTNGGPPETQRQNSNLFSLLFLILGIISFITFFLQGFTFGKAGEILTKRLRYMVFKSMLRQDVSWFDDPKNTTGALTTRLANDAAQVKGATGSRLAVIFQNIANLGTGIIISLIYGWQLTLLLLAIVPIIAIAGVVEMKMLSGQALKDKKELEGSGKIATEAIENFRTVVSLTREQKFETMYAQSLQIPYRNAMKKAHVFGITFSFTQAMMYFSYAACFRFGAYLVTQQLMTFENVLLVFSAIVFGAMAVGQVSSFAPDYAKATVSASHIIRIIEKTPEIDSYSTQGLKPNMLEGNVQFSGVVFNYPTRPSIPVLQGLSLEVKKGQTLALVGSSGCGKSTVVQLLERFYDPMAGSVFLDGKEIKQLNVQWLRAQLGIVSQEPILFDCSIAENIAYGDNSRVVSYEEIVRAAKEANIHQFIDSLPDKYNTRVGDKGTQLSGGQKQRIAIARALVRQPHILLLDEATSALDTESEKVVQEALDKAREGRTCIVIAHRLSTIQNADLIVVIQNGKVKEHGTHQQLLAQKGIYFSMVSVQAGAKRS

With IVERMECTIN, the Activity result is “substrate [+]”.
